Measurements reported in PubChem BioAssay AID248 (DTP/NCI, 2004).
Several values for one entry are separate records, joined by “and”; a condition that tells them apart may be missing. Equal values may be shown once. Inconclusive results and toxic doses are left out.

System: L1210 leukemia ip in BDF1 mice, survival T/C
Assay: NCI In Vivo Anticancer Drug Screen. Data for tumor model L1210 Leukemia (intraperitoneal) in B6D2F1 (BDF1) mice
Conditions: endpoint: mean survival time, higher = longer survival
Procedure, shortened: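 Value reflects the ratio of survival in compound-treated mice to survival in vehicle-treated controls, with both groups carrying the same transplanted tumor.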

[1] = dose: 100.0 mg/kg/injection, schedule: Q01DX001 (ip), vehicle: saline
[2] = dose: 200.0 mg/kg/injection, schedule: Q01DX001 (ip), vehicle: saline

With CCC1(O)CC2CN(CCc3c([nH]c4ccccc34)C(C(=O)OC)(c3cc4c(cc3OC)N(C)C3C(O)(C(=O)NCCO)C(O)C5(CC)C=CCN6CCC43C65)C2)C1 (centres undefined) the T/C (dose: 0.16 mg/kg/injection, schedule: Q01DX009 (ip), vehicle: saline) was 123 % of control, the T/C (dose: 0.39 mg/kg/injection, schedule: Q04DX003 (ip), vehicle: saline) was 158 % of control and the T/C (dose: 1.2 mg/kg/injection, schedule: Q01DX009 (ip), vehicle: saline) was 116 % of control. The T/C (dose: 389.0 micrograms/kg/injection, schedule: Q04DX003 (ip), vehicle: saline) was 118 % of control, the T/C (dose: 648.0 micrograms/kg/injection, schedule: Q04DX003 (ip), vehicle: saline) was 106 % of control and the T/C (dose: 1080.0 micrograms/kg/injection, schedule: Q04DX003 (ip), vehicle: saline) was 123 % of control. The T/C (dose: 5000.0 micrograms/kg/injection, schedule: Q04DX003 (ip), vehicle: saline) was 115 % of control.
CCC[CH2][Sn]1([CH2]CCC)[O]OC(c2ccccc2)[O]1 (centres undefined) was tested, and the T/C (dose: 0.5 mg/kg/injection, schedule: Q01DX009 (ip), vehicle: saline sonified) was 102 % of control, the T/C (dose: 1.0 mg/kg/injection, schedule: Q01DX009 (ip), vehicle: saline sonified) was 98 % of control and the T/C (dose: 2.0 mg/kg/injection, schedule: Q01DX009 (ip), vehicle: saline sonified) was 104 % of control.
With CC(C)(C)CC(C)(C)c1ccc(OCCOc2ccc(C(=O)O)cc2)cc1 the T/C (dose: 100.0 mg/kg/injection, schedule: Q01DX009 (ip), vehicle: Klucel (hydroxypropylcellulose) (HPC)) was 88 % of control, the T/C (dose: 200.0 mg/kg/injection, schedule: Q01DX009 (ip), vehicle: Klucel (hydroxypropylcellulose) (HPC)) was 92 % of control and the T/C (dose: 400.0 mg/kg/injection, schedule: Q01DX009 (ip), vehicle: Klucel (hydroxypropylcellulose) (HPC)) was 92 % of control.
CCCCCCCC(=O)Oc1ccc([N+](=O)[O-])cc1 was tested, and the T/C (dose: 75.0 mg/kg/injection, schedule: Q01DX001 (ip), vehicle: saline) was 100 % of control, the T/C (dose: 150.0 mg/kg/injection, schedule: Q01DX001 (ip), vehicle: saline) was 109 % of control and the T/C (dose: 300.0 mg/kg/injection, schedule: Q01DX001 (ip), vehicle: saline) was 95 % of control.
O=C1C2CCC(C2)C1Cl (centres undefined) was tested, and the T/C (dose: 62.5 mg/kg/injection, schedule: Q04DX003 (ip), vehicle: saline with Tween-80) was 95 % of control, the T/C (dose: 100.0 mg/kg/injection, schedule: Q04DX003 (ip), vehicle: saline with Tween-80) was 95 % of control and the T/C (dose: 125.0 mg/kg/injection, schedule: Q04DX003 (ip), vehicle: saline with Tween-80) was 103 % of control. The T/C (dose: 200.0 mg/kg/injection, schedule: Q04DX003 (ip), vehicle: saline with Tween-80) was 97 % of control, the T/C (dose: 250.0 mg/kg/injection, schedule: Q04DX003 (ip), vehicle: saline with Tween-80) was 104 % of control and the T/C (dose: 400.0 mg/kg/injection, schedule: Q04DX003 (ip), vehicle: saline with Tween-80) was 100 % of control.
With COC(=O)C(CSSCC(NC(=O)c1ccccc1)C(=O)OC)NC(=O)c1ccccc1 (centres undefined) the T/C (dose: 50.0 mg/kg/injection, schedule: Q01DX001 (ip), vehicle: saline) was 98 % of control, the T/C [1] was 114 % of control and the T/C [2] was 97 % of control.
In the case of CN1CCc2ccc(O)cc2C1, the T/C (dose: 100.0 mg/kg/injection, schedule: Q04DX003 (ip), vehicle: saline) is reported as 95 % of control and the T/C (dose: 200.0 mg/kg/injection, schedule: Q04DX003 (ip), vehicle: saline) is reported as 95 % of control.
In the case of CC1NC(=O)OC12CCCCC2 (centres undefined), the T/C (dose: 100.0 mg/kg/injection, schedule: Q01DX001 (ip), vehicle: saline with Tween-80) is reported as 96 % of control, the T/C (dose: 200.0 mg/kg/injection, schedule: Q01DX001 (ip), vehicle: saline with Tween-80) is reported as 92 % of control and the T/C (dose: 400.0 mg/kg/injection, schedule: Q01DX001 (ip), vehicle: saline with Tween-80) is reported as 92 % of control.
In the case of CC1NNC(=O)c2ccccc21 (centres undefined), the T/C [1] is reported as 95 % of control, the T/C [2] is reported as 96 % of control and the T/C (dose: 400.0 mg/kg/injection, schedule: Q01DX001 (ip), vehicle: saline) is reported as 94 % of control.
For CCOC(=S)c1ccc(S(=O)(=O)Nc2cccc3ccccc23)cc1, the T/C (dose: 100.0 mg/kg/injection, schedule: Q01DX001 (ip), vehicle: Klucel (hydroxypropylcellulose) (HPC)) was 97 % of control, the T/C (dose: 200.0 mg/kg/injection, schedule: Q01DX001 (ip), vehicle: Klucel (hydroxypropylcellulose) (HPC)) was 98 % of control and the T/C (dose: 400.0 mg/kg/injection, schedule: Q01DX001 (ip), vehicle: Klucel (hydroxypropylcellulose) (HPC)) was 95 % of control.
CC(C)(C)OC(=O)CSC#N was tested, and the T/C (dose: 5.0 mg/kg/injection, schedule: Q01DX001 (ip), vehicle: saline) was 101 % of control, the T/C (dose: 10.0 mg/kg/injection, schedule: Q01DX001 (ip), vehicle: saline) was 95 % of control and the T/C (dose: 20.0 mg/kg/injection, schedule: Q01DX001 (ip), vehicle: saline) was 101 % of control.
In the case of [Cl][Ni].[NH-]C(Cc1ccccc1)C(=O)O (centres undefined), the T/C (dose: 6.25 mg/kg/injection, schedule: Q04DX003 (ip), vehicle: saline) is reported as 98 % of control, the T/C (dose: 12.5 mg/kg/injection, schedule: Q04DX003 (ip), vehicle: saline) is reported as 98 % of control and the T/C (dose: 25.0 mg/kg/injection, schedule: Q04DX003 (ip), vehicle: saline) is reported as 91 % of control.
In the case of COP1(=O)OCC2OC(n3cnc4c(N)ncnc43)C(O)C2O1 (centres undefined), the T/C (dose: 100.0 mg/kg/injection, schedule: Q01DX005 (ip), vehicle: saline) is reported as 95 % of control and 103 % of control, the T/C (dose: 100.0 mg/kg/injection, schedule: Q01DX009 (ip), vehicle: saline) is reported as 89 % of control and the T/C (dose: 200.0 mg/kg/injection, schedule: Q01DX005 (ip), vehicle: saline) is reported as 89 % of control and 92 % of control. The T/C (dose: 200.0 mg/kg/injection, schedule: Q01DX009 (ip), vehicle: saline) was 92 % of control, the T/C (dose: 400.0 mg/kg/injection, schedule: Q01DX005 (ip), vehicle: saline) was 92 % of control and the T/C (dose: 400.0 mg/kg/injection, schedule: Q01DX009 (ip), vehicle: saline) was 98 % of control. The T/C (dose: 600.0 mg/kg/injection, schedule: Q01DX005 (ip), vehicle: saline) was 101 % of control.
